Reference: paper PMC9965614, “Computer-Aided Virtual Screening and In Vitro Validation of Biomimetic Tyrosinase Inhibitory Peptides from Abalone Peptidome” (International Journal of Molecular Sciences, 2023)
Entries after “also recorded” stand apart in the source; their conditions may differ. Where a SMILES comes first, the peptide text is derived from it.

Assays:
[1] = system: tyrosinase; details: KNN machine learning model, 425 sequence features; cited from earlier work
Description: (§1) Table 1 Abalone predicted TIPs by KNN and RF-based predictors and the predicted antioxidant scores by AnOxPePred 1.0 program. | column: Predicted Anti-Tyrosinase Probability / KNN Predictor || Previously, our research team proposed the in-house machine learning-based anti-tyrosinase prediction tool, which provides thousands of potential peptides. The probability scores of all 1079 peptides from KNN-based and RF-based models can be found in the supplementary file of the previous article by Kongsompong et al.. The KNN and RF predictors were trained and tested against 133 peptides with known anti-tyrosinase properties with 97% and 99% accuracy. The predictions of both models were based on the numeric matrix of 425 features calculated from amino acid composition (20 featur ...

[2] = system: tyrosinase; details: RF machine learning model, 425 sequence features; cited from earlier work
Description: as §1, with “/ RF” for “/ KNN”

[3] = system: B16F10 melanoma cells; test: Melanin content assay in UV-induced B16F10 cells; type: cell-based, murine; details: for inhibition of melanin content: 70 μM peptide, UVA/UVB-induced B16F10 cells, triplicate
Protocol: Cellular melanin content was measured using a modified method by Jegal, et al.. B16F10 cells were seeded at 5 × 10^5 cells/mL in 24-well plates. […] After that, the cells in each well were washed and replaced by PBS. The UV stimulation process was performed by the exposure to UVA (314-400 nm, 3.0 W) and UVB (280-315 nm, 13.6 W) for 22 s. Then, PBS was replaced with media and further incubated for 24 h. The UV-stimulated cells were then trypsinized and centrifuged at 1500 rpm for 5 min. The cell pellet was then dissolved in 2 M NaOH at 60 °C for 1 h to solubilize the melanin. The melanin content was estimated by measuring the absorbance at 405 nm. The melanin content was calculated with the following equation: % Melanin content=(S)/(C)×100, where, S is the OD405 of sample and C represents the OD405 of control. All experiments were performed in triplicate.

[4] = target: T1, cellular tyrosinase (Mus musculus, UniProt P11344); test: Intracellular (cellular) tyrosinase activity assay in UV-induced B16F10 cells; type: cell-based, murine; details: 70 μM peptide, UVA/UVB-induced B16F10 cells, triplicate
T1 construct: the harvested cells were lysed in cell extraction buffer; endogenous in cells; host or cells: B16F10 murine melanoma cells, UVA/UVB-induced
T1 sequence (P11344 19-533): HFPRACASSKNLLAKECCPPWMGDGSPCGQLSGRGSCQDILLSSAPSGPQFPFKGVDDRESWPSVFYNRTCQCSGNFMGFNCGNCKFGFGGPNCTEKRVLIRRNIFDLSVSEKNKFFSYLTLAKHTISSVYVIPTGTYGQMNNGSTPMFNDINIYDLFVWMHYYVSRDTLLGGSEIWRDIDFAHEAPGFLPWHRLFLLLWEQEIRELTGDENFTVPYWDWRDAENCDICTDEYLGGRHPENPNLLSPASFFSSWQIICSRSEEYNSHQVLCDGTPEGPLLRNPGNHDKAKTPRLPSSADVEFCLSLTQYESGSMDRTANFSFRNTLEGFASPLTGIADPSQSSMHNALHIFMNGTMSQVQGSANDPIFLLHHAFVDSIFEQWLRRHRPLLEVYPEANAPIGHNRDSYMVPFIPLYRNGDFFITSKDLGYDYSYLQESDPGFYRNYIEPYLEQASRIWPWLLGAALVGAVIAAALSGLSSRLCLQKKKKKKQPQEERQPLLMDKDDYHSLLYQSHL
Protocol: Tyrosinase activity was measured based on Dopa oxidase activity by estimating the dopachrome production according to the method by Qiao et al., 2012 [54], with some modifications. B16F10 cells were seeded at 5 × 10^6 cells/mL in 24-well plates. […] Each well was then washed and replaced with PBS 600 μL and induced with UVA (314-400 nm, 3.0 W) and UVB (280-315 nm, 13.6 W) using OSRAM (Ultra-Vitalux, Germany) for 22 s (0.32 J/cm^2). After that, the cells were incubated with medium 600 μL/well for a further 24 h. Then, the cells were trypsinized and the harvested cells were lysed in cell extraction buffer. After normalized protein concentration, 10 μL of each lysate supernatant was aliquoted into a 96-well plate and shaking incubated in dark conditions with 1 mM L-DOPA 90 μL in PBS at 37 °C at 280 rpm for 10 min. The absorbance was measured at 475 nm and all experiments were performed in triplicate to determine the IC50 of the samples. The cellular tyrosinase inhibitory activity was calculated with the following equation: % Cellular tyrosinase inhibition=[(C)-(S)/(C)]×100, where, C are defined as in the previous section.

[5] = system: reactive oxygen species (ROS) level in B16F10 cells; test: ROS level in B16F10 cells after UV exposure (assay kit); type: cell-based, murine; details: 70 μM, UV-exposed B16F10 cells, compared to untreated control group
Protocol: (§2) To determine the antioxidant activity, the centrifugation precipitate from Section 4.6 was dissolved in 1 mL of 1 M NaOH containing 10% DMSO at 80 °C for 1 h. Various assay kits, all from Beijing Solarbio Science & Technology Co., Ltd., Beijing, China, were used to measure the quantity of reduced reactive oxygen species (ROS) and the activity of superoxide dismutase (SOD), catalase (CAT), and glutathione peroxidase (GPx) according to the methods by Hu et al..

[6] = target: mushroom tyrosinase (Agaricus bisporus, UniProt C7FF04); test: Mushroom tyrosinase activity assay (L-DOPA oxidation, diphenolase); type: biochemical; details: L-DOPA substrate, up to 500 μM
Protocol: The inhibitory effect on mushroom tyrosinase was determined spectrophotometrically via L-DOPA oxidation. The reaction mixture consisted of 20 μL of hdTIPs, 140 μL of 100 mM sodium phosphate buffer (pH6.8) and 40 μL of 200 units/mL mushroom tyrosinase (EC 1.14.18.1; Sigma, Saint Louis, USA) placed in a 96-well microplate, then incubated for 10 min. After that, 20 μL of 5mM L-DOPA were mixed into each well over 20 min. Furthermore, the amount of dopachrome produced absorbance was measured at 475 nm. In addition, KA was used as the positive control at the same concentrations and conditions to hdTIPs. This method was modified from Kim et al..
The mushroom tyrosinase inhibitory activity was calculated with the following equation: % Mushroom tyrosinase inhibition=[(C)−(S)/(C)]×100, where, C represents the OD475 of control and S is the OD475 of sample. All experiments were performed in triplicate to determine the IC50 of the samples.

[7] = system: superoxide dismutase (SOD); test: Antioxidative enzyme activity, superoxide dismutase (assay kit); type: cell-based, murine; details: 70 μM, UV-exposed B16F10 cells
Protocol: as §2

[8] = system: catalase (CAT); test: Antioxidative enzyme activity, catalase (assay kit); type: cell-based, murine; details: 70 μM, UV-exposed B16F10 cells
Protocol: as §2

[9] = system: B16F10 melanoma cells; test: Cell viability assay (MTT assay); type: cell-based, murine; details: 0–1000 μg/mL, 24 h
Protocol: The number of viable cells was determined by the ability of mitochondria to convert MTT to formazan dye. The quantity of formazan formed is proportional to the number of viable cells present and can be measured spectrophotometrically. The method for MTT assay in this study was modified from Zaidi et al.. […] After 24 h incubation, 1 mg/mL of MTT (Invitrogen, Eugene, USA) solution was replaced prior to incubation at 37 °C for 3 h. The formazan precipitates were dissolved by 100 μL of dimethyl sulfoxide (DMSO) and the concentrations were measured at 570 nm in a microplate reader (Synergy H1, BioTek, Santa Clara USA). Cell viability was calculated using the following formula: cell viability (%) = (Asample/Acontrol) × 100, where Asample and Acontrol are the absorbances from the mixture with or without the addition of test sample, respectively.

Sequence of mushroom tyrosinase (C7FF04 1-392): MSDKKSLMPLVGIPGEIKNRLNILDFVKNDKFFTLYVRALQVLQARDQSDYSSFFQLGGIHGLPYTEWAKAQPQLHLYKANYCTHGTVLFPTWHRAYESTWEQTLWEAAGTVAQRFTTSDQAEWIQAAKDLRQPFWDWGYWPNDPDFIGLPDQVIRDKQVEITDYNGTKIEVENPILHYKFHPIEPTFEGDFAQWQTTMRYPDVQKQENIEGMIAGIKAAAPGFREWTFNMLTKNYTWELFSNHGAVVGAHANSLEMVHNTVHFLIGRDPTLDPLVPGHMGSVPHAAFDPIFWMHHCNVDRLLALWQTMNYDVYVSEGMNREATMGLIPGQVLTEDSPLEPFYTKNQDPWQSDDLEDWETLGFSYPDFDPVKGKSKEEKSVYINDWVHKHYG
Sequence of mushroom tyrosinase (G1K3P4 1-150 partner): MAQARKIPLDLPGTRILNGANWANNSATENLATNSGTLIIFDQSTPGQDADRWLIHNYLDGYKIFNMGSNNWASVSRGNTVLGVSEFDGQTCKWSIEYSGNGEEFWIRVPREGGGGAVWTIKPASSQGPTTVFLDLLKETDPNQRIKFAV

inhibition of cellular tyrosinase [4] | SMILES | Predicted Anti-Tyrosinase Probability KNN Predictor [1] | Predicted Anti-Tyrosinase Probability RF Predictor [2] | inhibition of melanin content [3] | effect on relative percentage of ROS in melanoma cells [5] | other results
unable to inhibit | CC[C@H](C)[C@H](NC(=O)[C@@H](N)CC(N)=O)C(=O)N[C@@H](CS)C(=O)N[C@@H](CCC(=O)O)C(=O)N[C@@H](CS)C(=O)N[C@@H](CCSC)C(=O)N[C@@H](CCCCN)C(=O)O [KNN1] (H-NICECMK-OH; N-terminus and C-terminus assumed) | 1.00 | 0.39 | unable to inhibit; also recorded: did not inhibit |  | 
 | CC(C)[C@H](NC(=O)[C@H](CCCNC(=N)N)NC(=O)[C@H](Cc1ccc(O)cc1)NC(=O)[C@H](CC(N)=O)NC(=O)[C@H](CCCCN)NC(=O)[C@@H](N)CCCCN)C(=O)N[C@@H](CO)C(=O)N[C@@H](CCC(=O)O)C(=O)N[C@@H](C)C(=O)N[C@@H](Cc1ccc(O)cc1)C(=O)N[C@@H](CCCCN)C(=O)O [KNN3] (H-KKNYRVSEAYK-OH; N-terminus and C-terminus assumed) | 1.00 | 0.32 |  |  | 
 | CC(C)C[C@H](NC(=O)[C@H](CO)NC(=O)[C@H](CO)NC(=O)[C@@H](N)CC(N)=O)C(=O)N[C@@H](CCCNC(=N)N)C(=O)N[C@H](C(=O)N[C@@H](CCC(N)=O)C(=O)N[C@@H](CO)C(=O)N[C@@H](CCCNC(=N)N)C(=O)O)C(C)C [RF2] (H-NSSLRVQSR-OH; N-terminus and C-terminus assumed) | 0.00 | 0.60 |  |  | inhibitory effect on mushroom tyrosinase (diphenolase activity) [6]: did not show any inhibition
5.11% | CC(C)[C@H](NC(=O)[C@H](CO)NC(=O)[C@H](CCCNC(=N)N)NC(=O)[C@H](CO)NC(=O)[C@H](CC(N)=O)NC(=O)[C@H](CO)NC(=O)[C@H](CCC(N)=O)NC(=O)[C@@H](N)CO)C(=O)N[C@@H](CO)C(=O)N[C@@H](CCCNC(=N)N)C(=O)O [RF3] (H-SQSNSRSVSR-OH; N-terminus and C-terminus assumed) | 0.00 | 0.52 | 6.09% | significant reductive effects | effect on SOD activity [7]: affected; effect on CAT activity [8]: affected
 | C[C@H](NC(=O)[C@H](CC(=O)O)NC(=O)[C@H](CO)NC(=O)[C@H](CO)NC(=O)[C@H](C)NC(=O)[C@@H](N)[C@@H](C)O)C(=O)N[C@@H](Cc1c[nH]c2ccccc12)C(=O)N[C@@H](Cc1ccc(O)cc1)C(=O)N[C@@H](CCCNC(=N)N)C(=O)O [TIP1] (H-TASSDAWYR-OH; N-terminus and C-terminus assumed) |  |  |  | significant reductive effects | 
3.32% | CSCC[C@H](NC(=O)[C@H](Cc1ccccc1)NC(=O)[C@@H]1CCCN1C(=O)[C@H](C)NC(=O)[C@@H](N)CO)C(=O)N1CCC[C@H]1C(=O)N[C@@H](CC(=O)O)C(=O)N[C@@H](C)C(=O)N[C@@H](Cc1ccccc1)C(=O)N[C@@H](Cc1ccccc1)C(=O)N[C@@H](CCCNC(=N)N)C(=O)N[C@@H](CC(N)=O)C(=O)N[C@H](C(=O)O)C(C)C [TIP2] (H-SAPFMPDAFFRNV-OH; N-terminus and C-terminus assumed) |  |  | 6.71% |  | 
 | OC[C@H]1O[C@@H](Oc2ccc(O)cc2)[C@H](O)[C@@H](O)[C@@H]1O [arbutin, reference compound] |  |  |  |  | effect on cell proliferation of melanoma cells [9]: did not affect the cell proliferation
 | O=c1cc(CO)occ1O [kojic acid, reference compound] |  |  |  |  | inhibition at 100 µg/mL ([3]; Mus musculus, B16-F10, light or radiation study): 21.1%

SMILES | inhibition of cellular tyrosinase [4] | Predicted Anti-Tyrosinase Probability KNN Predictor [1] | Predicted Anti-Tyrosinase Probability RF Predictor [2] | inhibition of melanin content [3] | effect on relative percentage of ROS in melanoma cells [5] | other results
C[C@H](NC(=O)[C@@H](N)CO)C(=O)N1CCC[C@H]1C(=O)N[C@H](C(=O)N[C@@H](Cc1ccccc1)C(=O)N[C@@H](Cc1ccccc1)C(=O)N[C@@H](CCCNC(=N)N)C(=O)O)[C@@H](C)O [RF1] (H-SAPTFFR-OH; N-terminus and C-terminus assumed) | 18.26% | 0.00 | 0.63 | 10.69% | significant reductive effects | inhibitory effect on mushroom tyrosinase (diphenolase activity) [6]: did not inhibit
